Experimental data from patent US20250066344A1 (BRISTOL-MYERS SQUIBB COMPANY, priority 2021, published 2025).
pEC50: −log10 of the molar value.

Target: T1, human RXFP1 (Homo sapiens, UniProt Q9HBX9)
T1 construct: expressed in transfected cells
T1 sequence (Q9HBX9 1-757): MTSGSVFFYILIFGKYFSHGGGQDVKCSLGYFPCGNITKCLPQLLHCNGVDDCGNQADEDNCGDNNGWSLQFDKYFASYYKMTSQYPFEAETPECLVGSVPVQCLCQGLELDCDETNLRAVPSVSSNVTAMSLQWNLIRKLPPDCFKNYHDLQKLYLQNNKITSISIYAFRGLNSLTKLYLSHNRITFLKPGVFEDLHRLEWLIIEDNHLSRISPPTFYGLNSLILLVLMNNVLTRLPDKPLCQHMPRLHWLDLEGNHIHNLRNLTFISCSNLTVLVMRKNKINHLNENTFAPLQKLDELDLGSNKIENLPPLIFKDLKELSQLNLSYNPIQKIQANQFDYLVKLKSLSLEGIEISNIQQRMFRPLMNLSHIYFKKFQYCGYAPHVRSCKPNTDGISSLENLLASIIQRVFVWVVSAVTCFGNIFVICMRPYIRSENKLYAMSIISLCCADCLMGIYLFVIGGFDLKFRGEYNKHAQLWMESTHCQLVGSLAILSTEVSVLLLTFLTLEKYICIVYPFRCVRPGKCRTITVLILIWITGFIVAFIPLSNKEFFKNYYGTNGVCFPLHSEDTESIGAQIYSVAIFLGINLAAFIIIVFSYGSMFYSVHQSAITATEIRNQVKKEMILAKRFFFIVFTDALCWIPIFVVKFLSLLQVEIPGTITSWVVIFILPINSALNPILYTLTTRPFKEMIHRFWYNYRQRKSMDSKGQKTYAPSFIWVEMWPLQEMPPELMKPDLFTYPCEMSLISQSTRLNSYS
Experiment: RXFP1 cyclic adenosine monophosphate (cAMP) assay, hRXFP1 HEK293
Format: cell-based
Settings: HEK293 cells stably expressing human RXFP1; 30 min at room temperature; HTRF cAMP
Procedure: RXFP1 Cyclic Adenosine Monophosphate (cAMP) Assays. Human embryonic kidney cells 293 (HEK293) cells and HEK293 cells stably expressing human RXFP1, were cultured in MEM medium supplemented with 10% qualified FBS, and 300 μg/ml hygromycin (Life Technologies). Cells were dissociated and suspended in assay buffer. The assay buffer was HBSS buffer (with calcium and magnesium) containing 20 mM HEPES, 0.05% BSA, and 0.5 mM IBMX. Cells (3000 cells per well, except 1500 cell per well for HEK293 cells stably expressing human RXFP1) were added to 384-well Proxiplates (Perkin-Elmer). Cells were immediately treated with test compounds in DMSO (2% final) at final concentrations in the range of 0.010 nM to 50 μM. Cells were incubated for 30 min at room temperature. The level of intracellular cAMP was determined using the HTRF HiRange cAMP assay reagent kit (Cisbio) according to manufacturer's instructions. Solutions of cryptate conjugated anti-cAMP and d2 fluorophore-labelled cAMP were made in a supplied lysis buffer separately. Upon completion of the reaction, the cells were lysed with equal volume of the d2-cAMP solution and anti-cAMP solution. After a 1 h room temperature incubation, time-resolved fluorescence intensity was measured using the Envision (Perkin-Elmer) at 400 nm excitation and dual emission at 590 nm and 665 nm. A calibration curve was constructed with an external cAMP standard at concentrations ranging from 2.7 μM to 0.1 μM by plotting the fluorescent intensity ratio from 665 nm emission to the intensity from the 590 nm emission against cAMP concentrations. The potency and activity of a compound to […] cAMP production was then determined by fitting to a 4-parametric logistic equation from a plot of cAMP level versus compound concentrations.
The examples disclosed below were tested in the human RXFP1 (hRXFP) HEK293 cAMP assay described above and found to have agonist activity. Tables 1-3, lists EC50 values in the hRXFP1 HEK293 cAMP assay measured for the examples.
Table A lists EC50 values in the hRXFP1 HEK293 cAMP assay measured for the examples.

SMILES: COc1ccc(C2=NOC(C(C)(C)O)C2)cc1C(=O)Nc1cc2c(cc1C(=O)Nc1ccc(F)c(C(F)(F)F)c1)OC(F)(F)O2 (single isomer, unassigned) [Example 77, 2,2-difluoro-N-(4-fluoro-3-(trifluoromethyl)phenyl)-6-(5-(5-(2-hydroxypropan-2-yl)-4,5-dihydroisoxazol-3-yl)-2-methoxybenzamido) benzo[d][1,3]dioxole-5-carboxamide]
- pEC50: 6.31

SMILES: COCCOC1(C2CC(c3ccc(OC)c(C(=O)Nc4cc5nc(C)sc5cc4C(=O)Nc4ccc(F)c(C(F)(F)F)c4)c3)=NO2)CC1 (stereo not shown) [Example 12, N-(4-fluoro-3-(trifluorometh-yl)phenyl)-5-(2-methoxy-5-(5-(1-(2-meth-oxyethoxy)-cyclopropyl)-4,5-dihydro-isoxazol-3-yl)-benzamido)-2-methylbenzo [d]thiazole-6-carboxamide]
- pEC50: 6.54

SMILES: COc1ccc(C2CCN(C(=O)C(C)(C)O)C2)cc1C(=O)Nc1cc2c(cc1C(=O)Nc1ccc(F)c(C(F)(F)F)c1)OC(F)(F)O2 (single isomer, unassigned) [Example 46, 2,2-difluoro-N-(4-fluoro-3-(trifluoromethyl)phenyl)-6-(5-(1-(2-hydroxy-2-methylpropanoyl)pyrrolidin-3-yl)-2-methoxybenzamido)benzo[d][1,3]dioxole-5-carboxamide]
- pEC50: 7.31

SMILES: COc1ccc(C2CCN(C(=O)C(C)(C)O)C2)cc1C(=O)Nc1cc2c(cc1C(=O)Nc1ccc(F)c(C(F)(F)F)c1)OC(F)(F)O2 (single isomer, unassigned) [Example 55, 2,2-difluoro-N-(4-fluoro-3-(trifluoromethyl)phenyl)-6-(5-(1-(2-hydroxy-2-methylpropanoyl)pyrrolidin-3-yl)-2-methoxybenzamido) benzo[d][1,3]dioxole-5-carboxamide]
- pEC50: 6.49

SMILES: COc1ccc(C(=O)N2CC[C@@H](O)C2)cc1C(=O)Nc1cc2c(cc1C(=O)Nc1ccc(F)c(C(F)(F)F)c1)OC(F)(F)O2 [Example 40, (R)-2,2-difluoro-N-(4-fluoro-3-(trifluoromethyl)phenyl)-6-(5-(3-hydroxypyrrolidine-1-carbonyl)-2-methoxybenzamido) benzo[d][1,3]dioxole-5-carboxamide]
- pEC50: 6.71

SMILES: COc1ccc(C2=NOC3CC(CO)CC23)cc1C(=O)Nc1cc2c(cc1C(=O)Nc1ccc(F)c(C(F)(F)F)c1)OC(F)(F)O2 (stereo not shown) [Example 98]
- pEC50: 8.89

SMILES: COc1ccc(-c2cc([C@H](OC(=O)NC3CCC3)C(F)(F)F)ccc2F)cc1C(=O)Nc1cc2c(C)noc2cc1C(=O)Nc1ccc(F)c(C(F)(F)F)c1 [Example 32, (S)-2,2,2-trifluoro-1-(6-fluoro-3′-((6-((4-fluoro-3-(trifluoromethyl)phenyl)carbamoyl)-3-methylbenzo[d]isoxazol-5-yl)carbamoy])-4-methoxy-[1,1′-biphenyl]-3-yl)ethyl cyclobutylcarbamate]
- pEC50: 7.74

SMILES: COc1ccc(-c2nc(N3CCOCC3)no2)cc1C(=O)Nc1cc2c(cc1C(=O)Nc1ccc(F)c(C(F)(F)F)c1)OC(F)(F)O2 [Example 87, 2,2-difluoro-N-(4-fluoro-3-(trifluoromethyl)phenyl)-6-(2-methoxy-5-(3-morpholino-1,2,4-oxadiazol-5-yl)benzamido)benzo[d] [1,3]dioxole-5-carboxamide]
- pEC50: 6.79

SMILES: COc1ccc(-c2cc(C(C)(C)O)on2)cc1C(=O)Nc1cc2c(cc1C(=O)Nc1ccc(F)c(C(F)(F)F)c1)OC(F)(F)O2 [Example 74]
- pEC50: 6.90

SMILES: COc1ccc(C2=NOC3CS(=O)(=O)CC23)cc1C(=O)Nc1cc2c(cc1C(=O)Nc1ccc(F)c(C(F)(F)F)c1)OC(F)(F)O2 (stereo not shown) [Example 65, 6-(5-(5,5-dioxido-3a,4,6,6a-tetrahydrothieno[3,4-d]isoxazol-3-yl)-2-methoxybenzamido)-2,2-difluoro-N-(4-fluoro-3-(trifluoromethyl)phenyl) benzo[d][1,3]dioxole-5-carboxamide]
- pEC50: 6.55

SMILES: COc1ccc(C2=NOC3COCC23)cc1C(=O)Nc1cc2nc(C)sc2cc1C(=O)Nc1ccc(F)c(C(F)(F)F)c1 (stereo not shown) [Example 3, N-(4-fluoro-3-(trifluorometh-yl)phenyl)-5-(2-methoxy-5-(3a,4,6,6a-tetrahydrofuro [3,4-d]isox-azol-3-yl)-benzamido)-2-methylbenzo [d]thiazole-6-carboxamide]
- pEC50: 8.07

SMILES: COc1ccc(C2=NOC3(CCNCC3)C2)cc1C(=O)Nc1cc2c(cc1C(=O)Nc1ccc(F)c(C(F)(F)F)c1)OC(F)(F)O2 [Example 67, 2,2-difluoro-N-(4-fluoro-3-(trifluoromethyl)phenyl)-6-(2-methoxy-5-(1-oxa-2,8-diazaspiro[4.5]dec-2-en-3-yl)benzamido)benzo[d] [1,3]dioxole-5-carboxamide]
- pEC50: 6.51

SMILES: COc1ccc(C2CC3(CNC3)C2)cc1C(=O)Nc1cc2c(cc1C(=O)Nc1ccc(F)c(C(F)(F)F)c1)OC(F)(F)O2 [Example 92, 2,2-difluoro-N-(4-fluoro-3-(trifluoromethyl)phenyl)-6-(2-methoxy-5-(2-azaspiro[3.3]heptan-6-yl)benzamido)benzo[d] [1,3]dioxole-5-carboxamide]
- pEC50: 5.58

SMILES: COc1ccc(C#CC(C)(C)O)cc1C(=O)Nc1cc2c(C)noc2cc1C(=O)Nc1ccc(F)c(C(F)(F)F)c1 [Example 34, N-(4-fluoro-3-(trifluoromethyl)phenyl)-5-(5-(3-hydroxy-3-methylbut-1-yn-1-yl)-2-methoxybenzamido)-methylbenzo[d]isoxazole-6-carboxamide]
- pEC50: 5.87

SMILES: COc1ccc(C2=NOC3CS(=O)(=O)CC23)cc1C(=O)Nc1cc2c(cc1C(=O)Nc1ccc(F)c(C(F)(F)F)c1)OC(F)(F)O2 (single isomer, unassigned) [Example 61, 6-(5-(5,5-dioxido-3a,4,6,6a-tetrahydrothieno[3,4-d]isoxazol-3-yl)-2-methoxybenzamido)-2,2-difluoro-N-(4-fluoro-3-(trifluoromethyl)phenyl) benzo[d][1,3]dioxole-5-carboxamide]
- pEC50: 7.77

SMILES: COc1ccc(C2=NOC3CC(O)CC23)cc1C(=O)Nc1cc2nc(C)sc2cc1C(=O)Nc1ccc(F)c(C(F)(F)F)c1 (single isomer, unassigned) [Example 23, N-(4-fluoro-3-(trifluorometh-yl)phenyl)-5-(5-(5-hydroxy-3a,5,6,6a-tetrahydro-4H-cyclopenta [d]isoxazol-3-yl)-2-methoxy-benzamido)-2-methylbenzo [d]thiazole-6-carboxamide]
- pEC50: 6.12

SMILES: COc1ccc(C2=NOC3C4CCC(C4)C23)cc1C(=O)Nc1cc2nc(C)sc2cc1C(=O)Nc1ccc(F)c(C(F)(F)F)c1 (stereo not shown) [Example 10, N-(4-fluoro-3-(trifluorometh-yl)phenyl)-5-(5-(3a,4,5,6,7,7a-hexahydro-4,7-methano-benzo[d]isox-azol-3-yl)-2-methoxybenz-amido)-2-methylbenzo [d]thiazole-6-carboxamide]
- pEC50: 6.89

SMILES: COc1ccc(-c2cnc3n2CCN(CCO)C3)cc1C(=O)Nc1cc2c(cc1C(=O)Nc1ccc(F)c(C(F)(F)F)c1)OC(F)(F)O2 [Example 80, 2,2-difluoro-N-(4-fluoro-3-(trifluoromethyl)phenyl)-6-(5-(7-(2-hydroxyethyl)-5,6,7,8-tetrahydroimidazo[1,2-a]pyrazin-3-yl)-2-methoxybenzamido) benzo[d][1,3]dioxole-5-carboxamide]
- pEC50: 6.59

SMILES: COc1ccc(C2=NOC3CN(C(=O)CO)CC23)cc1C(=O)Nc1cc2nc(C)sc2cc1C(=O)Nc1ccc(F)c(C(F)(F)F)c1 (stereo not shown) [Example 5, N-(4-fluoro-3-(trifluorometh-yl)phenyl)-5-(5-(5-(2-hy-droxyacetyl)-3a,5,6,6a-tetra-hydro-4H-pyr-rolo[3,4-d]isoxazol-3-yl)-2-methoxy-benzamido)-2-methylbenzo [d]thiazole-6-carboxamide]
- pEC50: 7.80
